Results from patent EP3122861B1, “LIQUID DETERGENT COMPOSITIONS COMPRISING AN ALPHA-AMYLASE” (priority 2014, dated 2015).

Key:
[1] = Assay for measurement of free calcium ions (calcium ion selective electrode); type: physicochemical; conditions: pH 8.0, 49 mM EPPS buffer, 80 mM potassium chloride, 21 °C; for chelator concentrations necessary to reduce the concentration of free calcium ions from 2.0 mM to 0.10 mM: by interpolation
Method: The following assay may be used for the measurement of free calcium ions in solution, and thus for the determination of chelating agents (chelants) ability to reduce the concentration of free calcium ions (Ca2+) from e.g. 2.0 mM to 0.10 mM at pH 8.
Various amounts of chelants are added to a solution of 2.0 mM Ca2+ and the free Ca2+ concentration is determined by using a Calcium Ion Selective Electrode at fixed pH and temperature. The concentration of chelant necessary to reduce the concentration of free calcium from 2.0 mM to 0.10 mM can be determined from a plot of the free calcium concentration measured versus the concentration of chelant. In the present assay the concentration of chelant necessary to reduce the concentration of free calcium from 2.0 mM to 0.10 mM is measured at pH 8, at 21°C, in potassium chloride and 49 mM EPPS.
Electrolyte solution: 4 M potassium chloride in ultrapure water (Milli-Q water). pH 8 buffer: 50 mM EPPS (4-(2-Hydroxyethyl)piperazine-1-propanesulfonic acid) adjusted to pH 8.0 using minimum amounts of 1 N sodium hydroxide. Calcium stock solution: 25 mM Ca2+ in pH 8 buffer, made from CaCl2.2H2O. Chelant stock solution: 15 mM chelant (on a 100 % dry chelator basis) in pH 8 buffer, re-adjusted to pH 8.0 using minimum amounts of 1 M NaOH or 1 M HCl.
Calcium Ion Selective Electrode from Thermo Scientific (cat. No. 9720BNWP) calibrated against a Calcium chloride standard solution. The electrode is calibrated as described by the guidelines following the electrode.
A series of vials are prepared, each containing 4 mL of the calcium stock solution (final concentration 2.0 mM), 1 mL electrolyte solution (final concentration 80 mM potassium chloride), chelant stock solution in various amounts (0 - 45 mL) and using the pH 8 buffer for adjusting the total volume to 50 mL. The final concentration of EPPS in the assay is 49 mM. After mixing, the concentration of free Ca2+ is measured by the calcium electrode. The free calcium concentration should be determined at a sufficient number of different chelant concentrations for each chelant tested, ensuring that the data set covers the entire range from 2.0 mM free calcium ions to a value below 0.10 mM or the final chelant concentration in the assay is higher than 10.0 mM. A suitable number of data points are 8 or more. The chelant concentration required to lower the initial 2.0 mM free calcium ions to 0.10 mM is obtained from a plot of the measured free calcium ion concentration versus chelator concentration by interpolation.
The solutions are equilibrated to the desired temperature, which in the present assay is 21°C.
Chelating agents (chelants) may be ranked by their ability to reduce the concentration of free calcium ions (Ca2+) from 2.0 mM to 0.10 mM at pH 8 developed from a method described by M.K.Nagarajan et al., JAOCS, Vol. 61, no. 9 (September 1984), pp. 1475-1478. The assay described above under "Materials and Methods" for measuring of free calcium ions was used. Accordingly, the concentration of chelant necessary to reduce the water hardness from 2.0 mM to 0.10 mM was determined as described above. The experiment was carried out with the pH 8 buffer at 21 °C. Table 12.1: Concentration of free Ca2+ determined in a mixture of 2.0 mM Ca2+ and various amounts of chelating agent at pH 8.
A number of chelants were characterized using this assay, and the chelator concentrations necessary to reduce the concentration of free calcium ions from 2.0 mM to 0.10 mM at pH 8.0 in 49 mM EPPS buffer and 80 mM potassium chloride are shown below in Table 12.2. This table can thus also be used for comparing the capabilities of the chelating agents for reducing the concentration of free calcium ions. Table 12.2

[2] = Determination of log K by ITC (isothermal titration calorimetry); conditions: binding constant of chelator and calcium ions, pH 10
From the text: Chelating agents can also be characterized by the binding constant of the chelating agent (chelator) and calcium ions. This constant can be determined by ITC (isothermal titration calorimetry) as described by AD Nielsen, CC Fuglsang and […], Analytical Biochemistry Vol. 314 (2003) page 227-234 and T Wiseman, S Williston, JF Brandts and L-N Lin, Analytical Biochemistry Vol. 179 (1989) page 131-137. All glassware and plastic bottles used are washed with a 1 % (w/w) EDTA solution and subsequently rinsed thoroughly in Chelex 100 treated ultrapure water (Milli-Q water). Solutions are stored in plastic bottles and kept at 5°C until use. […] • 125 μM chelant in 20 mM HEPES, pH 8 or 125 μM chelant in 20 mM glycine, pH 10 • 4 mM CaCl2 in 20 mM HEPES, pH 8 or 4 mM CaCl2 in 20 mM glycine, pH 10 • Ultrapure water (Milli-Q water) […] All solutions are degassed by stirring under vacuum before the experiments. INSTRUMENT: MCS-ITC (MicroCal Inc., Northampton, MA, USA) The reference cell is filled with ultrapure water (Milli-Q water). The sample cell is filled with the chelant solution at the selected pH and the syringe is filled with the calcium solution at the selected pH. The solutions are equilibrated to the desired temperature, e.g. 19°C. […] The obtained signals from the ITC are then integrated using the Origin software supplied by MicroCal Inc. To obtain the binding isotherms, regression routines are made using the same software package. […] Presently preferred is the "OneSites" model which gives the best fit for most of the commonly used chelating agents, i.e. the residuals are evenly distributed around zero. […] Alternatively, the chelating agents can be characterized by the binding constant of the chelating agent (chelator) and calcium ions. This constant can be determined by ITC (isothermal titration calorimetry) as described by AD Nielsen, CC Fuglsang and […], Analytical Biochemistry Vol. 314 (2003) page 227-234 and T Wiseman, S Williston, JF Brandts and L-N Lin, Analytical Biochemistry Vol. 179 (1989) page 131-137. The procedure for the determination of log K is described in detail above under "Materials and Methods". Using this procedure for determination of log K, the following log K values for several chelating agents were determined at pH 10 (Table 12.3). Table 12.3

| Log K [2] | SMILES | chelator concentration to reduce free calcium ions from 2.0 mM to 0.10 mM, Relative to citrate [1] | chelator concentrations necessary to reduce the concentration of free calcium ions from 2.0 mM to 0.10 mM [1] [mM] |
| --- | --- | --- | --- |
| 8 | O=C(O)CN(CCN(CC(=O)O)CC(=O)O)CC(=O)O [EDTA, ethylene diamine tetraacetate] | 0.21 | 1.90 |
| 6 | CC(O)(P(=O)(O)O)P(=O)(O)O [HEDP, 1-Hydroxyethylidene-1,1-Diphosphonic Acid] | 0.20 | 1.60 |
| 7 | O=C(O)CN(CCN(CC(=O)O)CC(=O)O)CCN(CC(=O)O)CC(=O)O [DTPA, diethylenetriaminepentaacetic acid] | 0.24 | 1.87 |
|  | O=P(O)(O)CN(CCN(CP(=O)(O)O)CP(=O)(O)O)CCN(CP(=O)(O)O)CP(=O)(O)O [DTMPA, diethylenetriaminepenta(methylene-phosphonic acid)] | 0.25 | 1.17 |
| 3 | O=C(O)CC(O)(CC(=O)O)C(=O)O [Citrate] | 1.00 | 8.36 |
| 2.56 | C[C@@H](C(=O)O)N(CC(=O)O)CC(=O)O [MGDA, methylglycinediacetic acid or N,N'-bis(carboxymethyl)alanine] | 0.33 | 2.56 |

| SMILES | Log K [2] | chelator concentration to reduce free calcium ions from 2.0 mM to 0.10 mM, Relative to citrate [1] | chelator concentrations necessary to reduce the concentration of free calcium ions from 2.0 mM to 0.10 mM [1] [mM] |
| --- | --- | --- | --- |
| O=C(O)CN(CCOCCOCCN(CC(=O)O)CC(=O)O)CC(=O)O [EGTA, ethylene glycol tetraacetic acid] | 9 | 0.33 | 2.60 |
